The values that follow come from PubChem BioAssay (NCI).

Among the test systems are BT-549 breast; EKVX NSCLC; HCC-2998 colon; HT29 colon; MALME-3M melanoma; MDA-MB-435; NCI-H23 lung; NCI/ADR-RES ovarian; OVCAR-3 ovarian; OVCAR-4 ovarian; OVCAR-5 ovarian; PC-3 prostate; RXF 393 renal; SF-295 CNS; SK-MEL-28 melanoma; SN12C renal; SNB-19 CNS; T-47D breast; TK-10 renal.
Common to all, as to test: DTP human tumour cell line panel, 48 h

Structures are written as SMILES.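 Assay format: 96-well plates, 48-hour exposure. TGI marks complete inhibition of growth.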 Some results are limits rather than exact numbers.

Turning to `CC1(C)N=C(N)N=C(N)N1CCCCc1ccccc1`, the TGI is over 100 µM in the experiment on BT-549 breast; over 100 µM in the experiment on EKVX NSCLC; over 51 µM in the experiment on HCC-2998 colon; over 100 µM in the experiment with HT29 colon; 83.4 µM in the experiment on MALME-3M melanoma; over 100 µM with MDA-MB-435. Moreover, the TGI with NCI-H23 lung is over 100 µM; in the experiment on NCI/ADR-RES ovarian, over 100 µM; in the experiment with OVCAR-3 ovarian, over 36.8 µM; in the experiment on OVCAR-4 ovarian, over 100 µM; in the experiment with OVCAR-5 ovarian, over 100 µM; with PC-3 prostate, over 77 µM. Also, the TGI is over 100 µM with RXF 393 renal; over 62.6 µM in the experiment on SF-295 CNS; over 100 µM in the experiment on SK-MEL-28 melanoma; over 54.4 µM with SN12C renal; over 100 µM in the experiment with SNB-19 CNS; over 78.1 µM in the experiment on T-47D breast. This molecule had a TGI in the experiment on TK-10 renal of over 100 µM.

As to `COC(=O)C(=O)C(C(=O)C(=O)Nc1nc(=S)[nH][nH]1)c1nc2ccc([N+](=O)[O-])cc2[nH]c1=O` (stereo not drawn), the TGI with BT-549 breast, in the experiment with EKVX NSCLC, in the experiment with HCC-2998 colon, in the experiment on HT29 colon, with MALME-3M melanoma and in the experiment on MDA-MB-435 was over 100 µM in each case. Also, the TGI with NCI-H23 lung, in the experiment on NCI/ADR-RES ovarian, in the experiment on OVCAR-3 ovarian, in the experiment on OVCAR-4 ovarian, in the experiment with OVCAR-5 ovarian and in the experiment with PC-3 prostate was over 100 µM throughout. Moreover, the TGI in the experiment with RXF 393 renal, with SF-295 CNS, in the experiment with SK-MEL-28 melanoma, in the experiment with SN12C renal, in the experiment on SNB-19 CNS and in the experiment on T-47D breast was over 100 µM in each case. The TGI in the experiment with TK-10 renal was over 100 µM.

In the case of `CC(=O)NC1=CC(=O)C=C(Cl)C1=O`, the TGI is over 100 µM in the experiment on BT-549 breast; over 100 µM in the experiment with EKVX NSCLC; over 100 µM in the experiment with HCC-2998 colon; over 100 µM with HT29 colon; 66 µM with MALME-3M melanoma; 32.2 µM in the experiment with MDA-MB-435. The TGI is over 100 µM in the experiment with NCI-H23 lung; over 100 µM with NCI/ADR-RES ovarian; over 100 µM in the experiment with OVCAR-3 ovarian; 37.7 µM in the experiment on OVCAR-4 ovarian; over 100 µM with OVCAR-5 ovarian; over 100 µM in the experiment on PC-3 prostate. Moreover, the TGI in the experiment with RXF 393 renal, in the experiment on SF-295 CNS, in the experiment on SK-MEL-28 melanoma, in the experiment on SN12C renal, with SNB-19 CNS and with T-47D breast was over 100 µM throughout. The molecule also displayed a TGI in the experiment on TK-10 renal of over 100 µM.

Turning to `NC1=CN(Cc2ccccc2)C2=N/C(=C\c3ccco3)C(=O)N12`, the TGI with BT-549 breast, in the experiment on EKVX NSCLC, in the experiment with HCC-2998 colon, in the experiment with HT29 colon, in the experiment on MALME-3M melanoma and with MDA-MB-435 was over 100 µM each time. Besides, the TGI in the experiment on NCI-H23 lung, in the experiment with NCI/ADR-RES ovarian, in the experiment on OVCAR-3 ovarian, in the experiment with OVCAR-4 ovarian, with OVCAR-5 ovarian and in the experiment on PC-3 prostate was over 100 µM each time. Moreover, the TGI in the experiment on RXF 393 renal, in the experiment with SF-295 CNS, with SK-MEL-28 melanoma, with SN12C renal, with SNB-19 CNS and with T-47D breast was over 100 µM throughout. For the same molecule, the concentration for total growth inhibition (TGI) in the experiment on TK-10 renal was over 100 µM.

Consider `C[C@]12CC[C@H]3[C@@H](CCC4=CC(=O)CC[C@@]43C)[C@@H]1CC[C@@H]2OC(=O)c1cccc2c(=O)c3ccccc3[nH]c12`, for which the TGI in the experiment on BT-549 breast, with EKVX NSCLC, in the experiment with HCC-2998 colon, in the experiment with HT29 colon, with MALME-3M melanoma and with MDA-MB-435 was over 100 µM each time. Moreover, the TGI in the experiment on NCI-H23 lung, in the experiment on NCI/ADR-RES ovarian, in the experiment with OVCAR-3 ovarian, in the experiment on OVCAR-4 ovarian, in the experiment on OVCAR-5 ovarian and in the experiment on PC-3 prostate was over 100 µM each time. In addition, the TGI in the experiment on RXF 393 renal, in the experiment on SF-295 CNS, with SK-MEL-28 melanoma, in the experiment on SN12C renal, in the experiment on SNB-19 CNS and with T-47D breast was over 100 µM each time. This molecule also had a TGI in the experiment with TK-10 renal of over 100 µM.

Regarding `CCCNC(=O)c1cc(NC(=O)c2cc(NC(=O)CCS(=O)(=O)OC)cn2C)cn1C`, the TGI with BT-549 breast was 8.54 µM; in the experiment with EKVX NSCLC, over 100 µM; with HCC-2998 colon, over 100 µM; with HT29 colon, over 56.9 µM; in the experiment with MALME-3M melanoma, 24.6 µM; in the experiment with MDA-MB-435 it was 68.8 µM. Also, the TGI was 40.7 µM in the experiment with NCI-H23 lung; over 100 µM with NCI/ADR-RES ovarian; 27.4 µM with OVCAR-3 ovarian; over 73.6 µM with OVCAR-4 ovarian; over 100 µM with OVCAR-5 ovarian; 98.9 µM with PC-3 prostate. The TGI was 29 µM in the experiment on RXF 393 renal; over 100 µM in the experiment with SF-295 CNS; over 100 µM with SK-MEL-28 melanoma; 29.7 µM with SN12C renal; 4.82 µM with SNB-19 CNS; 42.1 µM in the experiment with T-47D breast. Moreover, the TGI in the experiment with TK-10 renal is over 100 µM.

Take `CC(=O)Nc1ccc2c3c(cc(O)c2c1)N(C(=O)CCCCCC(=O)Nc1ccc2c4c(cc(O)c2c1)N(C(=O)OC(C)(C)C)CC4CCl)CC3CCl` (stereo not drawn): the TGI with BT-549 breast was 10.9 µM; with EKVX NSCLC it was over 100 µM; with HCC-2998 colon, 3.69 µM; with HT29 colon, over 39.8 µM; with MALME-3M melanoma, 8.98 µM; with MDA-MB-435, 3.29 µM. Also, the TGI with NCI-H23 lung is 3.59 µM; in the experiment on NCI/ADR-RES ovarian, over 100 µM; in the experiment on OVCAR-3 ovarian, 4.54 µM; with OVCAR-4 ovarian it was over 63.6 µM; with OVCAR-5 ovarian, 35.5 µM; in the experiment with PC-3 prostate, over 50.2 µM. Further, the TGI with RXF 393 renal is 2.69 µM; with SF-295 CNS, over 45.9 µM; with SK-MEL-28 melanoma, over 63.2 µM; with SN12C renal, over 38.3 µM; in the experiment with SNB-19 CNS it was over 35 µM; with T-47D breast, 7.82 µM. The same molecule yielded a TGI in the experiment on TK-10 renal of over 70.6 µM.

As a reminder, the TGI is the concentration at which net growth stops. A low value points to more potent growth arrest.
